Assay results reported in the supplement of paper PMC8149375.

Assays:
Details in all cases: treatment: drug + dasatinib (fixed dose, not stated); 5 days
[1] = test system: 786-O; assay: GI50 of drug in presence of dasatinib; higher = less potent
Method: (§1)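 Primary HTS combination arm: 8 RCC cell lines treated with 8 doses (up to 10 uM) of each library drug plus a fixed dose of dasatinib (dose not stated) for 5 days; viability read by CellTiter-Glo and normalised to DMSO. GI50 was fitted with XLfit, AUC is the area under the dose-response curve, and minimum viability is the lowest fraction of DMSO viability across doses.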

[2] = test system: SN12C; assay: as above
Method: as §1

[3] = test system: ACHN; assay: as above
Method: as §1

[4] = test system: 769-P; assay: as above
Method: as §1

[5] = test system: CAKI-1; assay: as above
Method: as §1

[6] = test system: UO-31; assay: as above
Method: as §1

[7] = test system: A498; assay: as above
Method: as §1

[8] = test system: TK-10; assay: as above
Method: as §1

[9] = test system: 786-O; assay: minimum viability across doses, drug + dasatinib, relative to DMSO (fraction); higher = less growth inhibition
Method: as §1

[10] = test system: SN12C; assay: as above
Method: as §1

[11] = test system: ACHN; assay: as above
Method: as §1

[12] = test system: 769-P; assay: as above
Method: as §1

[13] = test system: CAKI-1; assay: as above
Method: as §1

[14] = test system: UO-31; assay: as above
Method: as §1

[15] = test system: A498; assay: as above
Method: as §1

[16] = test system: TK-10; assay: as above
Method: as §1

[17] = test system: 786-O; assay: AUC of dose-response viability curve, drug + dasatinib, normalised to DMSO (arbitrary (AUC of normalised viability)); higher = less growth inhibition
Method: as §1

[18] = test system: SN12C; assay: as above
Method: as §1

[19] = test system: ACHN; assay: as above
Method: as §1

[20] = test system: 769-P; assay: as above
Method: as §1

[21] = test system: CAKI-1; assay: as above
Method: as §1

[22] = test system: UO-31; assay: as above
Method: as §1

[23] = test system: A498; assay: as above
Method: as §1

[24] = test system: TK-10; assay: as above
Method: as §1

Row | Compound | GI50 of drug [1] [µM] | GI50 of drug [3] [µM] | GI50 of drug [2] [µM] | GI50 of drug [4] [µM] | GI50 of drug [5] [µM] | GI50 of drug [6] [µM] | GI50 of drug [7] [µM] | GI50 of drug [8] [µM] | minimum viability across doses [9] | minimum viability across doses [10] | minimum viability across doses [11] | minimum viability across doses [12] | minimum viability across doses [13] | minimum viability across doses [14] | minimum viability across doses [15] | minimum viability across doses [16] | AUC of dose-response viability curve [17] | AUC of dose-response viability curve [18] | AUC of dose-response viability curve [19] | AUC of dose-response viability curve [20] | AUC of dose-response viability curve [21] | AUC of dose-response viability curve [22] | AUC of dose-response viability curve [23] | AUC of dose-response viability curve [24]
1 | CNC(=O)c1cc(Oc2ccc(NC(=O)Nc3cc(C(C)(C)C)nn3-c3ccc4ncccc4c3)c(F)c2)ccn1 [DCC-2036 (Rebastinib)] + Cc1nc(Nc2ncc(C(=O)Nc3c(C)cccc3Cl)s2)cc(N2CCN(CCO)CC2)n1 [dasatinib] | 0.293 | 0.499 | 0.319 | 1.54 | 0.125 | 1.1 | 4.42 | 1.33 | 0.208 | 0.0277 | 0.0458 | 0.185 | 0.053 | 0.00958 | 0.0121 | 0.0566 | 1.88 | 1.87 | 1.71 | 2.21 | 1.54 | 2.84 | 3.51 | 2.29
2 | CC(C)(C)c1cc(NC(=O)Nc2ccc(-c3cn4c(n3)sc3cc(OCCN5CCOCC5)ccc34)cc2)no1 [Quizartinib (AC220)] + Cc1nc(Nc2ncc(C(=O)Nc3c(C)cccc3Cl)s2)cc(N2CCN(CCO)CC2)n1 [dasatinib] | 1.56 | 2.02 | > 10 | 2.37 | 1.08 | > 10 | 6.27 | > 10 | 0.256 | 0.627 | 0.315 | 0.432 | 0.378 | 0.859 | 0.115 | 0.622 | 2.25 | 2.29 | 1.89 | 2.19 | 2.02 | 3.94 | 2.87 | 2.54
3 | CNC(=O)c1cc(Oc2ccc(NC(=O)Nc3ccc(Cl)c(C(F)(F)F)c3)cc2)ccn1.Cc1ccc(S(=O)(=O)O)cc1 [Sorafenib (Nexavar)] + Cc1nc(Nc2ncc(C(=O)Nc3c(C)cccc3Cl)s2)cc(N2CCN(CCO)CC2)n1 [dasatinib] | 2.2 | 3.17 | 5.96 | 3.77 | 4.81 | 1.53 | 7.05 | 9.08 | 0.174 | 0.265 | 0.0615 | 0.249 | 0.118 | 0.138 | 0.245 | 0.471 | 2.32 | 2.52 | 2.33 | 2.31 | 2.42 | 2.41 | 2.94 | 2.72
4 | COc1cc2ncnc(Nc3cccc(Cl)c3)c2cc1OC [AG-1478 (Tyrphostin AG-1478)] + Cc1nc(Nc2ncc(C(=O)Nc3c(C)cccc3Cl)s2)cc(N2CCN(CCO)CC2)n1 [dasatinib] | 0.037 | 0.0209 | > 10 | 0.107 | 7.73 | > 10 | > 10 | 0.726 | 0.284 | 0.646 | 0.236 | 0.3 | 0.451 | 0.586 | 0.961 | 0.363 | 1.84 | 2.37 | 1.39 | 1.67 | 2.2 | 3.65 | 3.95 | 1.93

Now from value to compound, other results behind:

Row | GI50 of drug [1] [µM] | GI50 of drug [3] [µM] | Compound | GI50 of drug [2] [µM] | GI50 of drug [4] [µM] | GI50 of drug [5] [µM] | GI50 of drug [6] [µM] | GI50 of drug [7] [µM] | GI50 of drug [8] [µM] | minimum viability across doses [9] | minimum viability across doses [10] | minimum viability across doses [11] | minimum viability across doses [12] | minimum viability across doses [13] | minimum viability across doses [14] | minimum viability across doses [15] | minimum viability across doses [16] | AUC of dose-response viability curve [17] | AUC of dose-response viability curve [18] | AUC of dose-response viability curve [19] | AUC of dose-response viability curve [20] | AUC of dose-response viability curve [21] | AUC of dose-response viability curve [22] | AUC of dose-response viability curve [23] | AUC of dose-response viability curve [24]
5 | > 10 | > 10 | Cn1cc(-c2ccc3nnc(C(F)(F)c4ccc5ncccc5c4)n3n2)cn1 + Cc1nc(Nc2ncc(C(=O)Nc3c(C)cccc3Cl)s2)cc(N2CCN(CCO)CC2)n1 [dasatinib] | > 10 | 7.4 | > 10 | > 10 | > 10 | > 10 | 0.566 | 0.614 | 0.499 | 0.469 | 0.592 | 0.923 | 0.854 | 0.646 | 2.54 | 2.34 | 1.87 | 2.32 | 2.24 | 3.52 | 3.2 | 2.6
6 | 0.0402 | 0.0154 | COc1ccc(-c2cc3c(C)nc(N)nc3n([C@H]3CC[C@H](OCCO)CC3)c2=O)cn1 + Cc1nc(Nc2ncc(C(=O)Nc3c(C)cccc3Cl)s2)cc(N2CCN(CCO)CC2)n1 [dasatinib] | 0.0794 | 0.0946 | 0.0417 | 0.129 | 0.491 | 0.0621 | 0.0021 | 0.0663 | 0.0415 | 0.0148 | 0.00992 | 0.00781 | 0.161 | 0.0233 | 1.15 | 1.37 | 1 | 1.37 | 1.12 | 1.67 | 2.3 | 1.35
7 | 0.22 | 0.285 | Nc1nc(N)c2nc(-c3cccc(O)c3)cnc2n1 + Cc1nc(Nc2ncc(C(=O)Nc3c(C)cccc3Cl)s2)cc(N2CCN(CCO)CC2)n1 [dasatinib] | 1.41 | > 10 | 1.76 | 2.96 | 4.14 | 3 | 0.0115 | 0.183 | 0.16 | 0.647 | 0.0946 | 0.0458 | 0.222 | 0.269 | 1.84 | 2.15 | 1.67 | 2.54 | 2.17 | 3.5 | 2.98 | 2.4
